Source: PubChem BioAssay AID206 (DTP/NCI, 2004)
Where “and” joins values, the source holds several entries; their conditions need not be identical. Equal entries are not always repeated. Inconclusive results are not listed.

System: nude mice, HT29 intrarenal xenograft, tumor weight T/C
Experiment: NCI In Vivo Anticancer Drug Screen. Data for tumor model HT29;CX-1 Human Adenocarcinoma (MER+) (intrarenal inoculation) in NU/NU Swiss (nude) mice
Conditions: endpoint: mean tumor weight change, higher = larger tumour
How it was run: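 T/C = treated-group value ÷ vehicle-group value, using tumor size or survival.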

[1] = dose: 300.0 mg/kg/injection, schedule: Q04DX004 (sc), vehicle: saline with Tween-80
[2] = dose: 600.0 mg/kg/injection, schedule: Q04DX004 (sc), vehicle: saline with Tween-80
[3] = dose: 300.0 mg/kg/injection, schedule: Q04DX004 (sc), vehicle: Klucel (hydroxypropylcellulose) (HPC)
[4] = dose: 600.0 mg/kg/injection, schedule: Q04DX004 (sc), vehicle: Klucel (hydroxypropylcellulose) (HPC)
[5] = dose: 1.0 mg/kg/injection, schedule: Q01DX010 (sc), vehicle: saline
[6] = dose: 1200.0 mg/kg/injection, schedule: Q04DX004 (sc), vehicle: saline with Tween-80

## O=c1[nH]cc(F)c(=O)[nH]1
dose: 6.25 mg/kg/injection, schedule: Q01DX010 (sc), vehicle: saline
  T/C: 160 % of control
dose: 12.5 mg/kg/injection, schedule: Q01DX010 (sc), vehicle: saline
  T/C: 101 % of control
dose: 20.0 mg/kg/injection, schedule: Q01DX010 (sc), vehicle: saline
  T/C: 87 % of control and 107 % of control
dose: 25.0 mg/kg/injection, schedule: Q01DX010 (sc), vehicle: saline
  T/C: 86 % of control
dose: 40.0 mg/kg/injection, schedule: Q01DX010 (sc), vehicle: saline
  T/C: 46 % of control
dose: 50.0 mg/kg/injection, schedule: Q04DX004 (ip), vehicle: saline
  T/C: 34 % of control
dose: 75.0 mg/kg/injection, schedule: Q04DX004 (ip), vehicle: saline
  T/C: 23 % of control
dose: 80.0 mg/kg/injection, schedule: Q01DX010 (sc), vehicle: saline
  T/C: 59 % of control

## COc1cccc2c1C(=O)c1c(O)c3c(c(O)c1C2=O)C[C@@](O)(/C(C)=N/NC(=O)c1ccc(Cl)cc1)C[C@@H]3OC1CC(N)C(O)C(C)O1 (stereo partly drawn)
dose: 10.0 mg/kg/injection, schedule: Q04DX004 (sc), vehicle: water
  T/C: 88 % of control
dose: 20.0 mg/kg/injection, schedule: Q04DX004 (sc), vehicle: water
  T/C: 39 % of control
dose: 80.0 mg/kg/injection, schedule: Q04DX004 (sc), vehicle: water
  T/C: 25 % of control

## COc1ccc(/C=C/C(=O)c2cc(C(=O)O)c(OC)cc2OC)cc1OC
dose: 225.0 mg/kg/injection, schedule: Q04DX004 (sc), vehicle: suspension in saline
  T/C: 82 % of control
dose: 450.0 mg/kg/injection, schedule: Q04DX004 (sc), vehicle: suspension in saline
  T/C: 102 % of control
dose: 900.0 mg/kg/injection, schedule: Q04DX004 (sc), vehicle: suspension in saline
  T/C: 88 % of control

## CC1(C)OC2C(COC(=O)c3ccc([N+](=O)[O-])cc3)OC(NC(=O)N(CCCl)N=O)C2O1 (stereo not drawn)
dose: 150.0 mg/kg/injection, schedule: Q04DX004 (sc), vehicle: saline with Tween-80
  T/C: 38 % of control
[1]
  T/C: 26 % of control
[2]
  T/C: 70 % of control

## NC(=O)Oc1cccc(OC(N)=O)c1
dose: 50.0 mg/kg/injection, schedule: Q04DX004 (sc), vehicle: suspension in saline
  T/C: 110 % of control
dose: 100.0 mg/kg/injection, schedule: Q04DX004 (sc), vehicle: suspension in saline
  T/C: 102 % of control
dose: 200.0 mg/kg/injection, schedule: Q04DX004 (sc), vehicle: suspension in saline
  T/C: 29 % of control
dose: 400.0 mg/kg/injection, schedule: Q04DX004 (sc), vehicle: suspension in saline
  T/C: 62 % of control

## C[C@]12CC[C@@H]3c4ccc(O)cc4CC[C@H]3[C@@H]1CC[C@@H]2O
[3]
  T/C: 54 % of control
[4]
  T/C: 75 % of control

## COC1/C=C/O[C@@]2(C)Oc3c(C)c(O)c4c(O)c(cc(O)c4c3C2=O)NC(=O)/C(C)=C\C=C\[C@H](C)C(O)[C@@H](C)[C@@H](O)[C@@H](C)[C@H](OC(C)=O)[C@@H]1C (stereo partly drawn)
dose: 150.0 mg/kg/injection, schedule: Q04DX004 (sc), vehicle: suspension in saline
  T/C: 72 % of control
dose: 300.0 mg/kg/injection, schedule: Q04DX004 (sc), vehicle: suspension in saline
  T/C: 69 % of control

## OC(C1CO1)C(O)C1CO1 (stereo not drawn)
dose: 0.5 mg/kg/injection, schedule: Q01DX010 (sc), vehicle: saline
  T/C: 113 % of control
[5]
  T/C: 52 % of control

## COc1ccc2nc3cc(Cl)ccc3c(NCCNCCNCCNc3c4ccc(Cl)cc4nc4ccc(OC)cc34)c2c1
dose: 100.0 mg/kg/injection, schedule: Q01DX010 (sc), vehicle: saline with Tween-80
  T/C: 116 % of control
dose: 400.0 mg/kg/injection, schedule: Q01DX010 (sc), vehicle: saline with Tween-80
  T/C: 124 % of control
dose: 800.0 mg/kg/injection, schedule: Q01DX010 (sc), vehicle: saline with Tween-80
  T/C: 93 % of control

## CC(=O)OCC1OC([S-])C(OC(C)=O)C(OC(C)=O)C1OC(C)=O.CC[PH+](CC)CC.CC[PH+](CC)CC.[Au].[Au] (stereo not drawn)
dose: 5.0 mg/kg/injection, schedule: Q04DX004 (sc), vehicle: Klucel (hydroxypropylcellulose) (HPC)
  T/C: 177 % of control
dose: 10.0 mg/kg/injection, schedule: Q04DX004 (sc), vehicle: Klucel (hydroxypropylcellulose) (HPC)
  T/C: 113 % of control

## COc1cc(Cl)ccc1C
[1]
  T/C: 64 % of control
[2]
  T/C: 90 % of control
[6]
  T/C: 76 % of control
dose: 2400.0 mg/kg/injection, schedule: Q04DX004 (sc), vehicle: saline with Tween-80
  T/C: 84 % of control

## CNC(=O)n1c(N)nc(-c2ccccc2)c1-c1ccccc1
[1]
  T/C: 92 % of control
[2]
  T/C: 38 % of control

## Nc1ncnc2c1ncn2C1OC(CO)C(O)C1O (stereo not drawn)
dose: 37.5 mg/kg/injection, schedule: Q04DX004 (sc), vehicle: saline
  T/C: 97 % of control
dose: 75.0 mg/kg/injection, schedule: Q04DX004 (sc), vehicle: saline
  T/C: 84 % of control
dose: 150.0 mg/kg/injection, schedule: Q04DX004 (sc), vehicle: Klucel (hydroxypropylcellulose) (HPC)
  T/C: 67 % of control
dose: 150.0 mg/kg/injection, schedule: Q04DX004 (sc), vehicle: saline
  T/C: 44 % of control
[3]
  T/C: 78 % of control
[4]
  T/C: 94 % of control
dose: 1200.0 mg/kg/injection, schedule: Q04DX004 (sc), vehicle: Klucel (hydroxypropylcellulose) (HPC)
  T/C: 66 % of control

## CCCCCCCCCCCCCCCC(=O)Nc1ccn(C2OC(CO)C(O)C2O)c(=O)n1 (stereo not drawn)
dose: 56.25 mg/kg/injection, schedule: Q04DX004 (sc), vehicle: water
  T/C: 114 % of control

## O=C(O)CC(NC(=O)CP(=O)(O)O)C(=O)O.[NH-]C1CCCCC1[NH-].[Pt+2] (stereo not drawn)
dose: 6.25 mg/kg/injection, schedule: Q04DX004 (sc), vehicle: dextrose
  T/C: 97 % of control
dose: 12.5 mg/kg/injection, schedule: Q04DX004 (sc), vehicle: dextrose
  T/C: 25 % of control
dose: 25.0 mg/kg/injection, schedule: Q04DX004 (sc), vehicle: dextrose
  T/C: 35 % of control

## CCN=C=NCCCN(C)C
dose: 25.0 mg/kg/injection, schedule: Q04DX004 (sc), vehicle: saline
  T/C: 90 % of control
dose: 50.0 mg/kg/injection, schedule: Q04DX004 (sc), vehicle: saline
  T/C: 78 % of control
dose: 100.0 mg/kg/injection, schedule: Q04DX004 (sc), vehicle: saline
  T/C: 38 % of control

## NC(=S)N/N=C\c1ncccc1OCc1cccc(N)c1
dose: 225.0 mg/kg/injection, schedule: Q04DX004 (sc), vehicle: saline with Tween-80
  T/C: 220 % of control
dose: 450.0 mg/kg/injection, schedule: Q04DX004 (sc), vehicle: saline with Tween-80
  T/C: 102 % of control
dose: 900.0 mg/kg/injection, schedule: Q04DX004 (sc), vehicle: saline with Tween-80
  T/C: 121 % of control
dose: 1800.0 mg/kg/injection, schedule: Q04DX004 (sc), vehicle: saline with Tween-80
  T/C: 99 % of control

## CN(C=O)C(C(=O)Nc1cccc2c(OC(=O)C(N(C)C=O)(N(C)C=O)N(C)C=O)c(N=Nc3ccc(S(=O)(=O)Nc4nccs4)cc3)cc(N=Nc3ccc(S(=O)(=O)Nc4nccs4)cc3)c12)(N(C)C=O)N(C)C=O (tested in a mixture with another compound)
[1]
  T/C: 91 % of control
[2]
  T/C: 103 % of control
[6]
  T/C: 80 % of control

## COc1cc([C@@H]2c3cc4c(c(O)c3C[C@H]3COC(=O)[C@@H]32)OCO4)cc(OC)c1O
[5]
  T/C: 92 % of control
dose: 2.0 mg/kg/injection, schedule: Q01DX010 (sc), vehicle: saline
  T/C: 75 % of control
dose: 4.0 mg/kg/injection, schedule: Q01DX010 (sc), vehicle: saline
  T/C: 106 % of control

## O=C1C2CC=CCC2C(=O)N1SC(Cl)(Cl)Cl (stereo not drawn)
dose: 18.75 mg/kg/injection, schedule: Q04DX004 (sc), vehicle: saline with Tween-80
  T/C: 96 % of control
dose: 37.5 mg/kg/injection, schedule: Q04DX004 (sc), vehicle: saline with Tween-80
  T/C: 88 % of control
[1]
  T/C: 101 % of control
[2]
  T/C: 71 % of control

## CN(C1=NS(=O)(=O)N=C(N(C)c2ccccc2)O1)c1ccccc1
dose: 225.0 mg/kg/injection, schedule: Q04DX004 (sc), vehicle: Klucel (hydroxypropylcellulose) (HPC)
  T/C: 95 % of control
dose: 450.0 mg/kg/injection, schedule: Q04DX004 (sc), vehicle: Klucel (hydroxypropylcellulose) (HPC)
  T/C: 153 % of control
dose: 1800.0 mg/kg/injection, schedule: Q04DX004 (sc), vehicle: Klucel (hydroxypropylcellulose) (HPC)
  T/C: 168 % of control

## Nc1ncnc2c1nnn2C1OC(CO)C(O)C1O (stereo not drawn)
dose: 75.0 mg/kg/injection, schedule: Q04DX004 (sc), vehicle: Klucel (hydroxypropylcellulose) (HPC)
  T/C: 41 % of control

## Nc1nc(F)nc2c1ncn2C1OC(COP(=O)(O)O)C(O)C1O (stereo not drawn)
dose: 50.0 mg/kg/injection, schedule: Q01DX010 (sc), vehicle: saline
  T/C: 91 % of control
dose: 100.0 mg/kg/injection, schedule: Q01DX010 (sc), vehicle: saline
  T/C: 84 % of control
dose: 200.0 mg/kg/injection, schedule: Q01DX010 (sc), vehicle: saline
  T/C: 22 % of control
